Laboratory results published in patent US7319000B1, “Compositions and methods for eliciting immune or anti-infective responses” (priority 1992, dated 2008).
Like-named read-outs stand apart in the source and are kept apart here.

Tests used:
[1] = test system: PBMCs of immunized rhesus monkeys; test: PBMC proliferation in rhesus monkeys immunized with a mixture of eight synthetic peptides; assay type: in vivo; design: key to T-cell Proliferation Responses: —: no detectable response; 1+: poor response; 2+: good response; 3+: better response; 4+: best response; 6+: best response; conditions: for T-cell Proliferation Responses: PBMC response to the individual peptide or gp160; for PBMC proliferative responses (in words): three rhesus monkeys, monitored for 32 weeks
Protocol: In the present studies, three rhesus monkeys (#7, #23 and #283C) were immunized subcutaneously with 1 ml (0.1 ml/site) of a mixture of eight synthetic peptides (300·g of each peptide in sterile water) emulsified in complete Freund's adjuvant at 1:1 ratio. […] At 3 and 7 weeks after the primary immunization, two booster injections of the peptide mixture (150·g of each peptide in sterile water) emulsified in incomplete Freund's adjuvant were given to each monkey. Monkey #7 was terminated after […], for health reasons unrelated to the study, while the remaining two monkeys (#283C and #23) received one additional booster injection at 25 weeks.
At two week intervals following the first immunization of each animal, 15 ml of whole heparinized blood was collected by venous puncture. The peripheral blood mononuclear cells (PBMC) were separated by standard ficoll-hypaque centrifugation and employed in proliferation assays. The PBMCs were monitored every two weeks for a period of 32 weeks for proliferative responses against individual peptides and recombinant gp160.

[2] = test system: PLN cells from B6C3F1 mice; test: In vitro proliferation (3H-TdR) of PLN cells from immunized B6C3 F1 mice; assay type: in vivo; design: key to In Vitro Proliferation of PLN Cells from B6C3F1, Analogous Peptide / In Vitro Proliferation of PLN Cells from B6C3F1, GP 160: −: cpm values are corrected and categorized according to unrelated antigen response in vitro.; •: Not determined.; +: cpm values are corrected and categorized according to unrelated antigen response in vitro.; ++: cpm values are corrected and categorized according to unrelated antigen response in vitro.; +++: cpm values are corrected and categorized according to unrelated antigen response in vitro.; ++++: cpm values are corrected and categorized according to unrelated antigen response in vitro; conditions: for T cell response against the corresponding peptide and native HIV envelope protein gp160 (in words): disulfide (di-Cys) polymeric form; for In Vitro Proliferation of PLN Cells from B6C3F1, GP 160: in vitro antigen: GP 160; for In Vitro Proliferation of PLN Cells from B6C3F1, Analogous Peptide: in vitro antigen: analogous peptide
BALB/c mice = test: Anti-peptide antibody response (ELISA) in BALB/c mice immunized with peptide multimers; assay type: in vivo; design: key to Antipeptide Antibody Reactivity to Analogous Peptide: −: cpm values are corrected and categorized according to unrelated antigen response in vitro.; •: Not determined.; +: cpm values are corrected and categorized according to unrelated antigen response in vitro.; ++: cpm values are corrected and categorized according to unrelated antigen response in vitro.; +++: cpm values are corrected and categorized according to unrelated antigen response in vitro.; ++++: cpm values are corrected and categorized according to unrelated antigen response in vitro; conditions: for Antipeptide Antibody Reactivity to Analogous Peptide: antibody raised in Balb/C mice, ELISA end point; for anti-peptide antibody production (in words): disulfide (di-Cys) polymeric form; for anti-peptide antibody response (in words): high molecular weight forms of the peptides
[3] = test system: PLN cells from A SW × Balb/c F1 mice; test: In vitro proliferation (3H-TdR) of PLN cells from immunized A.SW x BALB/c F1 mice; assay type: in vivo, A.SWXBALB/C F1 mice; design: key: −: cpm values are corrected and categorized according to unrelated antigen response in vitro.; •: Not determined.; +: cpm values are corrected and categorized according to unrelated antigen response in vitro.; ++: cpm values are corrected and categorized according to unrelated antigen response in vitro.; +++: cpm values are corrected and categorized according to unrelated antigen response in vitro.; ++++: cpm values are corrected and categorized according to unrelated antigen response in vitro; conditions: for In Vitro Proliferation of PLN Cells from A SW × Balb/c F1, GP 160: in vitro antigen: GP 160; for In Vitro Proliferation of PLN Cells from A SW × Balb/c F1, Analogous Peptide: in vitro antigen: analogous peptide
[4] = test system: HIV-1 IIIB infection of human cells; assay type: cell-based; also: test concentration or dose not given here
3A9 target cells (H-2k) = assay type: in vivo, Balb/c mice; conditions: effector cells: No Treatment

CC[C@H](C)[C@H](NC(=O)[C@@H](NC(=O)[C@@H](NC(=O)[C@H](Cc1ccccc1)NC(=O)[C@H](C)NC(=O)[C@H](CCCNC(=N)N)NC(=O)CNC(=O)[C@@H]1CCCN1C(=O)CNC(=O)[C@H](CCCNC(=N)N)NC(=O)[C@H](CCC(N)=O)NC(=O)[C@@H](NC(=O)[C@@H](N)CCCNC(=N)N)[C@@H](C)CC)C(C)C)[C@@H](C)O)C(=O)NCC(=O)N[C@@H](CCCCN)C(=O)O [Peptide R15K]
effect of anti-CD4 MAbs plus complement, or complement alone, on CTL cytotoxicity (P815 target cells (H-2d); effectors from mice immunized with monomeric peptide, FIG. 3A): no significant effect | effect of anti-CD8 MAbs and rabbit complement on CTL cytotoxicity (P815 target cells (H-2d); effectors from mice immunized with monomeric peptide, peptide treated or env expressing targets, FIG. 3A): abolished the cytotoxicity

FLGFLGAAGSTMGAASLTLTVQANQ [Peptide 63, gp160 aa 519-543]
T-cell Proliferation Responses ([1]; Rhesus Monkey #7): 2+ | T-cell Proliferation Responses ([1]; Rhesus Monkey #23): 4+ | T-cell Proliferation Responses ([1]; Rhesus Monkey #283C): 3+ | PBMC proliferative responses (in words) [1]: good proliferative responses | T cell response against the corresponding peptide and native HIV envelope protein gp160 (in words) [2]: strong T cell response | In Vitro Proliferation of PLN Cells from B6C3F1, GP 160 [2]: ++ | In Vitro Proliferation of PLN Cells from B6C3F1, Analogous Peptide [2]: ++ | Antipeptide Antibody Reactivity to Analogous Peptide (BALB/c mice): • | anti-peptide antibody production (in words) (BALB/c mice): do not stimulate anti-peptide antibody production | anti-peptide antibody response (in words) (BALB/c mice): very low to negligible amounts of anti-peptide antibodies | In Vitro Proliferation of PLN Cells from A SW × Balb/c F1, GP 160 [3]: ++ | In Vitro Proliferation of PLN Cells from A SW × Balb/c F1, Analogous Peptide [3]: ++

GIAIGPGRTLYAREK [Peptide D27, V3 loop peptide, strain NY-5]
% RT INHIBITION [4]: 0%

GIHFGPGQALYTTGI [Peptide D33, V3 loop peptide, strain MAL]
% RT INHIBITION [4]: 0%

GTGPCTNVSTVQC [Peptide 116]
T-cell Proliferation Responses ([1]; Rhesus Monkey #7): 1+ | T-cell Proliferation Responses ([1]; Rhesus Monkey #23): 3+ | T-cell Proliferation Responses ([1]; Rhesus Monkey #283C): 2+ | PBMC proliferative responses (in words) [1]: weak responses | In Vitro Proliferation of PLN Cells from B6C3F1, GP 160 [2]: − | In Vitro Proliferation of PLN Cells from B6C3F1, Analogous Peptide [2]: ++ | Antipeptide Antibody Reactivity to Analogous Peptide (BALB/c mice): − | anti-peptide antibody response (in words) (BALB/c mice): very low to negligible amounts of anti-peptide antibodies

GVPVWKEATTLFC [Peptide 105]
PBMC proliferative responses (in words) [1]: A significant response was not detected | In Vitro Proliferation of PLN Cells from B6C3F1, GP 160 [2]: +++ | In Vitro Proliferation of PLN Cells from B6C3F1, Analogous Peptide [2]: ++++ | Antipeptide Antibody Reactivity to Analogous Peptide (BALB/c mice): • | anti-peptide antibody response (in words) (BALB/c mice): high antibody titers | In Vitro Proliferation of PLN Cells from A SW × Balb/c F1, GP 160 [3]: − | In Vitro Proliferation of PLN Cells from A SW × Balb/c F1, Analogous Peptide [3]: +

HGEFAPGNYPALWSYA [Peptide B105]
in vivo CTL response against unmodified free synthetic peptide (P815 target cells (H-2d); same immunization protocol as Example 5): successfully generated

LWDQSLKPCVKLT [Peptide 111]
T-cell Proliferation Responses ([1]; Rhesus Monkey #7): 3+ | T-cell Proliferation Responses ([1]; Rhesus Monkey #23): 2+ | T-cell Proliferation Responses ([1]; Rhesus Monkey #283C): 3+ | PBMC proliferative responses (in words) [1]: good proliferative responses | In Vitro Proliferation of PLN Cells from B6C3F1, GP 160 [2]: ++ | In Vitro Proliferation of PLN Cells from B6C3F1, Analogous Peptide [2]: + | Antipeptide Antibody Reactivity to Analogous Peptide (BALB/c mice): − | anti-peptide antibody response (in words) (BALB/c mice): very low to negligible amounts of anti-peptide antibodies | In Vitro Proliferation of PLN Cells from A SW × Balb/c F1, GP 160 [3]: − | In Vitro Proliferation of PLN Cells from A SW × Balb/c F1, Analogous Peptide [3]: •

NNTRKSITKGPGRVIYATGQIIGD [Peptide D26, V3 loop peptide, strain RF]
% RT INHIBITION [4]: 72.2%

RIHIGPGARFLTTKN [Peptide D39, V3 loop peptide, strain MN(Y-L)]
% RT INHIBITION [4]: 73.8%

RIHIGPGRAFFTTKN [Peptide D40, V3 loop peptide, strain MN(Y-F)]
% RT INHIBITION [4]: 62.8%

RIHIGPGRAFYTTKN [Peptide D24, V3 loop peptide, strain MN]
% RT INHIBITION [4]: 22.1%

RTPTGLGQSLYTTRS [Peptide D38, V3 loop peptide, strain ELI]
% RT INHIBITION [4]: 33.7%

RVTLGPGRVWYTTGE [Peptide D29, V3 loop peptide, strain CDC4]
% RT INHIBITION [4]: 0%

SIHIGPGRAFYATGD [Peptide D30, V3 loop peptide, strain SC]
% RT INHIBITION [4]: 54.3%

SIRIGPGKVFTAKGG [Peptide D31, V3 loop peptide, strain Z3]
% RT INHIBITION [4]: 0%

SISIGPGRAFFATTD [Peptide D34, V3 loop peptide, strain Z321]
% RT INHIBITION [4]: 0%

SITKGPGRVIYATGQ [Peptide D28, V3 loop peptide, strain RF]
% RT INHIBITION [4]: 0%

SIYIGPGRAFHTTGR [Peptide D32, V3 loop peptide, strain SF2]
% RT INHIBITION [4]: 0%

SLSIGPGRAPRTREI [Peptide D25, V3 loop peptide, strain WMJ-3]
% RT INHIBITION [4]: 42.4%

STPIGLGQALYTTRG [Peptide D35, V3 loop peptide, strain Z6]
% RT INHIBITION [4]: 30.3%

STPIGLGQALYTTRI [Peptide D37, V3 loop peptide, strain JY1]
% RT INHIBITION [4]: 0%

SVITQACSKVSFE [Peptide 113]
T-cell Proliferation Responses ([1]; Rhesus Monkey #7): 1+ | T-cell Proliferation Responses ([1]; Rhesus Monkey #23): 2+ | T-cell Proliferation Responses ([1]; Rhesus Monkey #283C): 2+ | PBMC proliferative responses (in words) [1]: weak responses | T cell response against the corresponding peptide and native HIV envelope protein gp160 (in words) [2]: strong T cell response | In Vitro Proliferation of PLN Cells from B6C3F1, GP 160 [2]: + | In Vitro Proliferation of PLN Cells from B6C3F1, Analogous Peptide [2]: ++ | Antipeptide Antibody Reactivity to Analogous Peptide (BALB/c mice): − | anti-peptide antibody production (in words) (BALB/c mice): do not stimulate anti-peptide antibody production | anti-peptide antibody response (in words) (BALB/c mice): very low to negligible amounts of anti-peptide antibodies | In Vitro Proliferation of PLN Cells from A SW × Balb/c F1, GP 160 [3]: + | In Vitro Proliferation of PLN Cells from A SW × Balb/c F1, Analogous Peptide [3]: ++

TYQRTRALVTG [Peptide B106, free synthetic peptide from Influenza virus nucleoprotein (aa 147-158)]
% Specific Lysis (3A9 target cells (H-2k); target 3A9 (MHC-mis-matched, H-2k), E:T 80:1): 0% | % Specific Lysis (3A9 target cells (H-2k); target 3A9 (MHC-mis-matched, H-2k), E:T 160:1): 0% | % Specific Lysis (3A9 target cells (H-2k); target 3A9 + B106, E:T 20:1): 0% | % Specific Lysis (3A9 target cells (H-2k); target 3A9 + B106, E:T 40:1): 0% | % Specific Lysis (3A9 target cells (H-2k); target 3A9 + B106, E:T 80:1): 0% | % Specific Lysis (3A9 target cells (H-2k); target 3A9 + B106, E:T 160:1): 0%

VYYGVPVWKEA [Peptide 104]
T-cell Proliferation Responses ([1]; Rhesus Monkey #7): 4+ | T-cell Proliferation Responses ([1]; Rhesus Monkey #23): 2+ | T-cell Proliferation Responses ([1]; Rhesus Monkey #283C): 4+ | PBMC proliferative responses (in words) [1]: good proliferative responses | In Vitro Proliferation of PLN Cells from B6C3F1, GP 160 [2]: ++ | In Vitro Proliferation of PLN Cells from B6C3F1, Analogous Peptide [2]: ++++ | Antipeptide Antibody Reactivity to Analogous Peptide (BALB/c mice): • | anti-peptide antibody response (in words) (BALB/c mice): very low to negligible amounts of anti-peptide antibodies | In Vitro Proliferation of PLN Cells from A SW × Balb/c F1, GP 160 [3]: + | In Vitro Proliferation of PLN Cells from A SW × Balb/c F1, Analogous Peptide [3]: +++

YLRDQQLLGIWGC [Peptide 61, gp160 aa 586-598]
T-cell Proliferation Responses ([1]; Rhesus Monkey #7): — | T-cell Proliferation Responses ([1]; Rhesus Monkey #23): 3+ | T-cell Proliferation Responses ([1]; Rhesus Monkey #283C): 2+ | PBMC proliferative responses (in words) [1]: Two of the three rhesus monkey-derived PBMC preparations also showed good proliferative responses | T cell response against the corresponding peptide and native HIV envelope protein gp160 (in words) [2]: strong T cell response | In Vitro Proliferation of PLN Cells from B6C3F1, GP 160 [2]: + | In Vitro Proliferation of PLN Cells from B6C3F1, Analogous Peptide [2]: ++ | Antipeptide Antibody Reactivity to Analogous Peptide (BALB/c mice): − | anti-peptide antibody production (in words) (BALB/c mice): do not stimulate anti-peptide antibody production | anti-peptide antibody response (in words) (BALB/c mice): very low to negligible amounts of anti-peptide antibodies | In Vitro Proliferation of PLN Cells from A SW × Balb/c F1, GP 160 [3]: ++ | In Vitro Proliferation of PLN Cells from A SW × Balb/c F1, Analogous Peptide [3]: ++

YNKRKRIHIGPGRAFYTTKNNIGC [Peptide D23, V3 loop peptide, strain MN]
% RT INHIBITION [4]: 98.8%
